In publication PMC6308159 (Frontiers in Public Health, 2018):
“And” between values parts separate entries of the source, which are not always exact repeats. Identical values can stand only once. Like-named read-outs stand apart in the source and are kept apart here.

Assays:
[1] = system: primary human endothelial colony-forming cells (ECFCs), cord blood clones
[2] = system: primary human endothelial colony-forming cells (ECFCs), cord blood clones; assay: cells; conditions: read-out: IC50, range between individual ECFC clones
[3] = cited from earlier work
in vitro = conditions: human
[4] = system: polyclonal ECFC line CB002; type: cell-based, human; conditions: 0.390625 μM; 48 h
[5] = read-out: IC50, range between individual ECFC clones

CCC[CH2][Sn]([Cl])([CH2]CCC)[CH2]CCC [TBT, Tributyltin Chloride]
IC10, range between individual ECFC clones [1]: 0.2 to 0.5 µM | average IC10 (mean and standard deviation) [1]: 0.3 ± 0.11 µM | IC50 [1, 5]: 1.2 to 2.3 µM

CC1=CC(=O)c2ccccc2C1=O [Menadione, 2-methyl-1,4-naphthoquinone, reference compound]
IC10, range between individual ECFC clones [1]: 5.6 to 19.0 µM | average IC10 (mean and standard deviation) [1]: 11.5 ± 5.03 µM | cells killed [1]: 100% | live cells [1]: < 50% | IC50 [2]: 8 to 26.3 µM | blood level ([3]; observed in a clinical setting): 500 to 2000 nM | level found in the blood ([3]; volunteers after ingestion of 10 mg menadione sodium bisulfite tablets): 20 nM | viability at 10 µM (in vitro): 100%

O.[Cl][Cd][Cl] [CdCl2, Cadmium Chloride Hydrate]
IC10, range between individual ECFC clones [1]: 4.2 to 9.3 µM | average IC10 (mean and standard deviation) [1]: 6.7 ± 1.85 µM | cells killed [1]: ~100% | cytotoxicity [1]: not cytotoxic | IC50 [1, 5]: 12.3 to 18 µM

CC1=C(C/C=C(\C)CCC[C@H](C)CCC[C@H](C)CCCC(C)C)C(=O)c2ccccc2C1=O [Phytonadione, phytonadione, reference compound]
effect on ECFC viability / toxicity [1]: not toxic

O=[As][O-].[Na+] [NaAsO2, Sodium (meta)arsenite]
raw CFDA fluorescence per well [4]: 4689 and 4248 and 2550 and 2844 and 2369 and 3435 | IC10, range between individual ECFC clones [1]: 1.1 to 5.0 µM | average IC10 (mean and standard deviation) [1]: 2.4 ± 1.16 µM | cells killed [1]: 100% | IC50 ([1]; read-out: IC50 ± SD): 7.5 ± 4.7 µM

[Cl-].[Cl-].[Zn+2] [ZnCl2, Zinc Chloride]
cytotoxicity [1]: cytotoxic | effect on viability [1]: did not affect viability

O.O.O.O.O.O.O.O=[As]([O-])([O-])O.[Na+].[Na+] [Na2HAsO4, Sodium arsenate dibasic heptahydrate]
cells killed [1]: 0% | effect on ECFC viability / toxicity [1]: no effect
